This is an account of results in patent EP4722228A1, “NEW COMPOUND TARGETING MUSK AND USE THEREOF” (The University of Tokyo, priority 2023, dated 2024).

Bridge positions count the residues as written; N and C are the ends. Square brackets hold non-standard residues; d marks the D form. Peptide text beside a SMILES is read from it. I, II: the chains in the order shown. * marks the point of attachment. Palmitoyl = CCCCCCCCCCCCCCCC(=O)*; PEG3 = NCCOCCOCCOCCC(=O)O; Dap = NC[C@H](N)C(=O)O

This experiment addresses T1, human MuSK (Homo sapiens, UniProt O15146).
T1 construct: DNA corresponding to the extracellular portion (amino acids 1-493) was amplified by a PCR method; made in house; host or cells: Expi293F cells
T1 sequence (O15146 24-493): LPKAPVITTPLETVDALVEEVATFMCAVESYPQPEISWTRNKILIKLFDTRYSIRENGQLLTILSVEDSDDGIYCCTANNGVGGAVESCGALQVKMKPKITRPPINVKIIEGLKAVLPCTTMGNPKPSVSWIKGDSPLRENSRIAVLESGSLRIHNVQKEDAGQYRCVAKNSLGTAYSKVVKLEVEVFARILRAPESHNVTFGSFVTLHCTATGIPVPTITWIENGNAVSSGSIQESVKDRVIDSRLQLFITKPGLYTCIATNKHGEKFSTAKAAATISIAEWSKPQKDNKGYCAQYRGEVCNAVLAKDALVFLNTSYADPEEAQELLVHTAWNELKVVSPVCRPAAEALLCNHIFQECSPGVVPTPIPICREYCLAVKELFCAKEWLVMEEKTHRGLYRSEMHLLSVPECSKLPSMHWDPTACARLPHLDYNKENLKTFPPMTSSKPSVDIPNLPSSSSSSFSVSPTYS
Put plainly: SPR binding activity test to human MuSK (Biacore). The following applies: Table 5, read-out: Binding activity (KD) (nM) Human. The essentials: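 Extracellular domain (aa 1-493) of human MuSK, expressed as an Fc fusion in Expi293F cells, was captured on Protein G or A chips. Analytes were injected as concentration series in phosphate-buffered saline with 0.05% Tween 20, plus 0.1% DMSO for peptides. ka, kd and KD were obtained from 1:1 binding fits.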
For orientation: SPR reads the build-up and loss of mass on a sensor chip optically.

For `CCCCCCCCCCCCCCCC(=O)NCCCC[C@H](NC(=O)[C@H](CNC(=O)CCOCCOCCOCCNC(=O)CNC(=O)[C@@H]1CSCC(=O)N[C@H](Cc2ccc(O)cc2)C(=O)N2CCC[C@H]2C(=O)N[C@@H](CO)C(=O)N[C@@H](Cc2ccc(O)cc2)C(=O)N[C@@H](Cc2c[nH]cn2)C(=O)N[C@@H]([C@@H](C)O)C(=O)N[C@@H](CC(N)=O)C(=O)N[C@@H](C(C)C)C(=O)N[C@@H](C(C)C)C(=O)N[C@@H](C)C(=O)N[C@@H](CO)C(=O)N[C@@H](CC(C)C)C(=O)N[C@@H](CCCCN)C(=O)N[C@@H](CCCNC(=N)N)C(=O)N1)NC(=O)CCOCCOCCOCCNC(=O)CNC(=O)[C@@H]1CSCC(=O)N[C@H](Cc2ccc(O)cc2)C(=O)N2CCC[C@H]2C(=O)N[C@@H](CO)C(=O)N[C@@H](Cc2ccc(O)cc2)C(=O)N[C@@H](Cc2c[nH]cn2)C(=O)N[C@@H]([C@@H](C)O)C(=O)N[C@@H](CC(N)=O)C(=O)N[C@@H](C(C)C)C(=O)N[C@@H](C(C)C)C(=O)N[C@@H](C)C(=O)N[C@@H](CO)C(=O)N[C@@H](CC(C)C)C(=O)N[C@@H](CCCCN)C(=O)N[C@@H](CCCNC(=N)N)C(=O)N1)C(N)=O` [MuSK7-pal] (I: {CH2CO}-[dY]PSYHTNVVASLKRCG[PEG3][Dap]K(Palmitoyl)-NH2 / II: {CH2CO}-[dY]PSYHTNVVASLKRCG[PEG3]; amide I:18-II:C; thioether I:N-I:15, II:N-II:15), the Kd was determined as 0.9 nM.

By Kd is commonly meant the constant that tells how readily two partners part at equilibrium.
